Test results published in a melting point compilation (Tetko et al.).

Structure (SMILES)	melting point
N#Cc1ccc(O)c(N)c1	149 to 151 °C
Cc1ccc(-n2c(C)c[nH]c2=O)cc1	195 to 197 °C
CCCOc1ccc(C=O)c(OCCC)c1	58 to 60 °C
Sc1nnc(Nc2cccc(Cl)c2)s1	210 to 212 °C
COCCN1C(=O)c2ccc(C(=O)O)cc2S1(=O)=O	151 to 153 °C
NC(=O)CCSc1ccc(F)cc1	119 to 121 °C
NC(=S)CC1CC1	68 to 70 °C
NCCNS(=O)(=O)c1cc(Br)ccc1Br	170 to 172 °C
Cc1nn(CCCl)c(C)c1C(=O)O	139 to 141 °C
COC(=O)c1ccc2nnn(O)c2c1	166 to 168 °C
CC(C(=O)O)c1ccc(S(C)(=O)=O)cc1 (centres undefined)	91 to 93 °C
CCC1(CC)CC(=O)NC1=O	82 to 84 °C
CC(CC(=O)O)C(=O)c1cccc(F)c1 (centres undefined)	59 to 61 °C
COc1ccc(S(N)(=O)=O)c([N+](=O)[O-])c1	143 to 145 °C
Nc1nnc(Cc2ccsc2)o1	151 to 153 °C
O=C(O)c1cc(C2CC2)nc2c1cnn2C1CCCCC1	210 to 212 °C
COc1ccc(Nc2ncccc2N)cc1	164 to 166 °C
O=[N+]([O-])c1cc(C(F)(F)F)ccc1I	34 to 36 °C
CNS(=O)(=O)c1ccc(S(=O)(=O)Cl)cc1	99 to 101 °C
COC(=O)c1cc(C)c(C)c(S(=O)(=O)Cl)c1	61 to 63 °C
NC(=O)c1cc(=NCC2CCCO2)cc[nH]1 (centres undefined)	123 to 125 °C
CC(Oc1ccc(F)cc1Cl)C(=O)O (centres undefined)	72 to 74 °C
NC(C(=O)O)(c1cccc(F)c1)C(F)(F)F (centres undefined)	131 to 133 °C
C=CCOc1ccccc1C(=O)O	58 to 60 °C
Cc1nn(C)c(C)c1CC(N)=O	175 to 177 °C
O=C1NCCNc2ccccc21	151 to 153 °C

Structure (SMILES)	melting point
COc1cc(F)c(S(=O)(=O)Cl)c(F)c1	53 to 55 °C
CC(C)(C)OC(=O)NC1CCN(Cc2cc(Cl)cc(Cl)c2)CC1	145 to 147 °C
Nc1ccn(CC(F)(F)F)n1	39 to 41 °C
Nc1cccc(S(=O)(=O)NCc2ccco2)c1	83 to 85 °C
CC(c1ccccc1)n1c(N)nc2ccccc21 (centres undefined)	124 to 126 °C
COC(=O)c1c[nH]c(CC(C)C)n1	136 to 138 °C
CC(C)(C)c1ncsc1C(=O)O	185 to 187 °C
Cc1cc(C)cc(C(=O)N2CCNCC2)c1	125 to 127 °C
COc1ccc(Br)cc1C(=O)C(=O)O	137 to 139 °C
Nc1cc(-c2ccccc2Br)no1	74 to 76 °C
COc1cccc(C(=O)NN)c1O	144 to 146 °C
Cn1cc(C(=O)O)c(-c2coc3ccccc23)n1	277 to 279 °C
Sc1nnc(-c2ccc(Cl)cc2)o1	88 to 90 °C
O=C(O)CNC(=O)NCc1cccc([N+](=O)[O-])c1	153 to 155 °C
c1ccc(CN2CCN(c3ccccc3)CC2)cc1	51 to 53 °C
O=c1ccc(-c2ccc3c(c2)OCCCO3)n[nH]1	199 to 201 °C
COc1ccc2[nH]cc(C(C)=O)c2c1	206 to 208 °C
CCC1CCc2[nH]c(=O)sc2C1 (centres undefined)	144 to 146 °C
COc1ccc2c(c1)C1(CC2)NC(=O)NC1=O (centres undefined)	189 to 191 °C
Cc1c(-c2cccnc2)noc1N	177 to 179 °C
Nc1nc(C(F)(F)F)c[nH]1	121 to 123 °C
O=C(O)c1ccc(N2CCNC2=O)cc1	313 to 315 °C
NCc1ccnc(-n2cccn2)c1	44 to 46 °C
Nc1ccc2nc3n(c(=O)c2c1)CCC3	221 to 223 °C
Nc1nnc(-c2ccc(Br)cc2F)s1	194 to 196 °C
O=[N+]([O-])c1ccc(-c2cn[nH]c2)cc1	205 to 207 °C

Structure (SMILES)	melting point
CC(C)(C)c1cccc2c1OCC2=O	69 to 71 °C
CC(C)(O)c1ccc(Br)cc1	42 to 44 °C
NNC(=S)Nc1cccnc1	174 to 176 °C
COc1ccc(NC(=O)CSCC(=O)O)cc1	112 to 114 °C
CN(C)c1ccc(C(=N)N)c(Cl)c1	148 to 150 °C
Nc1nc2c(F)c(Cl)ccc2s1	80 to 82 °C
Cn1nc(CC(=O)O)c2ccccc2c1=O	189 to 191 °C
Cc1cc(CS(=O)(=O)Cl)no1	43 to 45 °C
N#Cc1ccnc(Oc2ccccc2Cl)c1	79 to 81 °C
CS(=O)(=O)CC(=O)c1ccccc1F	77 to 79 °C
O=C(O)COc1ccc(Oc2ccccn2)cc1	154 to 156 °C
O=C(O)c1ccc(=O)n(Cc2ccccc2Cl)c1	182 to 184 °C
O=C1CCC(Cc2cccc(O)c2)O1 (centres undefined)	102 to 104 °C
NC(=O)C(CC(=O)O)NC(=O)OCc1ccccc1 (centres undefined)	169 to 171 °C
COc1ccc(Br)c(-c2nnc(N)o2)c1	189 to 191 °C
CC(C)(C)Sc1ccc(N)cc1	67 to 69 °C
CCOc1ccc(Br)cc1N	51 to 53 °C
CNC(=O)NCCC(=O)O	129 to 131 °C
CCOC(=O)c1cc2cc(N)ccc2s1	89 to 91 °C
COc1cc(C=O)cc(Br)c1OC(F)F	90 to 92 °C
O=C(O)c1cncc(N2CCOCC2)c1	258 to 260 °C
CC(=O)c1ccccc1NS(=O)(=O)c1cccs1	150 to 152 °C
O=C(O)C1CC(=O)N(c2ccc(S(=O)(=O)Cl)cc2)C1 (centres undefined)	157 to 159 °C
N#CCc1ccc(Oc2ncccn2)cc1	70 to 72 °C
CNC(=O)CS(=O)(=O)c1ccc(C(=O)O)cc1	249 to 251 °C
O=C(Nc1nccs1)OCC(F)(F)F	167 to 169 °C

Structure (SMILES)	melting point
N#CCC(=O)Nc1ccncc1	181 to 183 °C
CCOC(=O)CCOc1ccc(C(C)=O)cc1	55 to 57 °C
CCC(=O)c1ccc(OC)c(OC)c1	61 to 63 °C
O=C(O)c1ccc(N2CCOC2=O)cc1	271 to 273 °C
CC(C)C(=O)Nc1cccc(O)c1	179 to 181 °C
CC(=O)NC(C)c1ccc(-c2csc(N)n2)cc1 (centres undefined)	225 to 227 °C
O=C1CC(Cc2ccc(C(=O)O)cc2)C(=O)N1 (centres undefined)	243 to 245 °C
Nc1ncc(Cc2cc(Cl)ccc2Cl)s1	110 to 114 °C
Cc1cccc(NC(=O)Nc2cccc3c2NCCC3)c1	168 to 170 °C
O=C(O)c1cccc(Oc2cnccn2)c1	112 to 114 °C
O=C(O)C1CCCCN1C(=O)OCc1ccccc1 (centres undefined)	86 to 88 °C
Cc1ccc2ncc(C(=O)O)n2c1	177 to 179 °C
Nc1ccccc1OCCN1CC(=O)Nc2ccccc21	147 to 149 °C
Nc1cccc(CNC(=O)Nc2ccccc2Cl)c1	177 to 179 °C
Cc1ccc(N)cc1S(C)(=O)=O	72 to 74 °C
CSc1ccc(C(=O)O)o1	126 to 128 °C
NCc1cc[nH]n1	58 to 60 °C
NNC(=O)C1CCS(=O)(=O)C1 (centres undefined)	71 to 73 °C
Cc1cc(C)c(C(=O)CCl)c(C)c1C	61 to 63 °C
O=C(O)C1CCCN(C(=O)CCOc2ccccc2)C1 (centres undefined)	171 to 173 °C
NCC(O)c1ccc(OC(F)F)cc1 (centres undefined)	54 to 56 °C
NS(=O)(=O)c1cccc(-c2nnco2)c1	184 to 186 °C
Cc1cc(C)n2nc(C)c(C(=O)O)c2n1	226 to 228 °C
OC(c1ccccc1)C1CCNCC1 (centres undefined)	171 to 173 °C
Cc1n[nH]c(-c2ccccc2C)n1	141 to 143 °C
O=C(O)Cc1csc(-c2ccsc2)n1	110 to 112 °C
